Assay results from the NIST ThermoML archive (doi:10.1016/j.jct.2008.07.021).
± gives the expanded uncertainty stated by the source.

Tests used:
[1] = Crystal; DTA
[2] = Molar enthalpy of transition or fusion; conditions: Crystal; DSC
[3] = molar enthalpy of vaporization or sublimation; conditions: 298.15 K; Crystal; Static calorimetry

COc1cccc2c1CCCC2=O [3,4-dihydro-5-methoxy-1(2H)-naphthalenone]
Triple point temperature [1]: 362.52 ± 0.39 K
Molar enthalpy of transition or fusion [2]: 5.29 ± 0.124 kcal/mol
molar enthalpy [3]: 23.4 ± 0.215 kcal/mol

COc1ccc2c(c1)CCCC2=O [3,4-dihydro-6-methoxy-1(2H)naphthalenone]
Triple point temperature [1]: 351.27 ± 0.49 K
Molar enthalpy of transition or fusion [2]: 5.45 ± 0.182 kcal/mol
molar enthalpy [3]: 25 ± 0.43 kcal/mol

COc1ccc2c(c1)C(=O)CCC2 [7-methoxy-1-tetralone]
Triple point temperature [1]: 334.79 ± 0.39 K
Molar enthalpy of transition or fusion [2]: 5.54 ± 0.127 kcal/mol
molar enthalpy [3]: 24.6 ± 0.43 kcal/mol
